Test results taken from US6914045B2, “Glycopeptide antibiotics” (Wyeth Holdings Corporation, priority 2001, dated 2005).
Values after ≈ are worked out from the molar mass of the structure shown. Values belong to the compound of their own block, whether it stands above or below them.

How the values were obtained:
Assay in all cases: in vitro antibacterial evaluation, MIC by broth dilution
Type in all cases: cell-based
Escherichia coli = conditions: 18 hours at 35° C.
Streptococcus sp. = conditions: broth dilution, 18 hours at 35° C.
How it was run: (§1)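 Following National Committee for Clinical Laboratory Standards recommendations (M7-A2), susceptibility was measured by dilution in Muller-Hinton II […]. Bacteria were seeded at 5×10^5 CFU/mL against compound concentrations from 64 down to 0.06 μg/mL.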

Staphylococcus sp. = test system: Staphylococcus sp.
How it was run: as §1

Enterococcus sp. = conditions: broth dilution, 18 hours at 35° C.
How it was run: as §1

[1] = broth dilution, 18 hours at 35° C.
[2] = strain ATCC 29213; broth dilution, 18 hours at 35° C.
[3] = strain GC 1131; broth dilution, 18 hours at 35° C.
[4] = strain GC 3051; broth dilution, 18 hours at 35° C.
[5] = strain GC 3053; broth dilution, 18 hours at 35° C.
[6] = strain GC 4541; broth dilution, 18 hours at 35° C.
[7] = strain GC 4542; broth dilution, 18 hours at 35° C.
[8] = strain GC 4544; broth dilution, 18 hours at 35° C.
[9] = strain GC 4545; broth dilution, 18 hours at 35° C.

- MIC Escherichia coli (ATCC 25922) (Escherichia coli): >128 µg/mL
- MIC Escherichia coli (GC 4559) (Escherichia coli): >128 µg/mL
- MIC Escherichia coli (GC 4560) (Escherichia coli): >128 µg/mL
- MIC Streptococcus agalactiae (GC 4564) (Streptococcus sp.): >128 µg/mL
- MIC Streptococcus pneumoniae (ATCC 6301) (Streptococcus sp.): >128 µg/mL
- MIC Streptococcus pneumoniae (GC 1894) (Streptococcus sp.): >128 µg/mL
- MIC Streptococcus pneumoniae (GC 4565) (Streptococcus sp.): >128 µg/mL
- MIC Streptococcus pyogenes (GC 4563) (Streptococcus sp.): >128 µg/mL
- MIC Streptococcus pneumoniae (ATCC 6301) (Streptococcus sp.; inoculum 5×10^5 CFU/mL, strain ATCC 6301): >128 µg/mL
- MIC Streptococcus pneumoniae (GC 1894) (Streptococcus sp.; inoculum 5×10^5 CFU/mL, strain GC 1894): >128 µg/mL
- MIC Streptococcus pyogenes (GC 4563) (Streptococcus sp.; inoculum 5×10^5 CFU/mL, strain GC 4563): >128 µg/mL
- MIC Streptococcus agalactiae (GC 4564) (Streptococcus sp.; inoculum 5×10^5 CFU/mL, strain GC 4564): >128 µg/mL
- MIC Streptococcus pneumoniae (GC 4565) (Streptococcus sp.; inoculum 5×10^5 CFU/mL, strain GC 4565): >128 µg/mL
- MIC Coagulase Negative Staphylococcus (GC 4547) (Staphylococcus sp.; [1]): >128 µg/mL
- MIC Coagulase Negative Staphylococcus (GC 4548) (Staphylococcus sp.; [1]): >128 µg/mL
- MIC Coagulase Negative Staphylococcus (GC 4549) (Staphylococcus sp.; [1]): >128 µg/mL
- MIC Coagulase Negative Staphylococcus (GC 4551) (Staphylococcus sp.; [1]): >128 µg/mL
- MIC Coagulase Negative Staphylococcus (GC 6257) (Staphylococcus sp.; [1]): >128 µg/mL
- MIC Staphylococcus aureus-SMITH (GC 4543) (Staphylococcus sp.; [1]): >128 µg/mL
- MIC Staphylococcus aureus-SMITH (GC 4543) (Staphylococcus sp.; broth dilution, 18 hours at 35° C.; strain GC 4543): >128 µg/mL
- MIC Coagulase Negative Staphylococcus (GC 4547) (Staphylococcus sp.; broth dilution, 18 hours at 35° C.; strain GC 4547): >128 µg/mL
- MIC Coagulase Negative Staphylococcus (GC 4548) (Staphylococcus sp.; broth dilution, 18 hours at 35° C.; strain GC 4548): >128 µg/mL
- MIC Coagulase Negative Staphylococcus (GC 4549) (Staphylococcus sp.; broth dilution, 18 hours at 35° C.; strain GC 4549): >128 µg/mL
- MIC Coagulase Negative Staphylococcus (GC 4551) (Staphylococcus sp.; broth dilution, 18 hours at 35° C.; strain GC 4551): >128 µg/mL
- MIC Coagulase Negative Staphylococcus (GC 6257) (Staphylococcus sp.; broth dilution, 18 hours at 35° C.; strain GC 6257): >128 µg/mL
- MIC Staphylococcus aureus (ATCC 29213) (Staphylococcus sp.; [2]): >128 µg/mL
- MIC Staphylococcus aureus (GC 1131) (Staphylococcus sp.; [3]): >128 µg/mL
- MIC Staphylococcus aureus (GC 3051) (Staphylococcus sp.; [4]): >128 µg/mL
- MIC Staphylococcus aureus (GC 3053) (Staphylococcus sp.; [5]): >128 µg/mL
- MIC Staphylococcus aureus (GC 4541) (Staphylococcus sp.; [6]): >128 µg/mL
- MIC Staphylococcus aureus (GC 4542) (Staphylococcus sp.; [7]): >128 µg/mL
- MIC Staphylococcus aureus (GC 4544) (Staphylococcus sp.; [8]): >128 µg/mL
- MIC Staphylococcus aureus (GC 4545) (Staphylococcus sp.; [9]): >128 µg/mL
- MIC Enterococcus avium (GC 4558) (Enterococcus sp.): 128 µg/mL (≈ 93.1 µM)
- MIC Enterococcus faecalis (ATCC 29212) (Enterococcus sp.): >128 µg/mL
- MIC Enterococcus faecalis (GC 2242) (Enterococcus sp.): >128 µg/mL
- MIC Enterococcus faecalis (GC 2691) (Enterococcus sp.): >128 µg/mL
- MIC Enterococcus faecalis (GC 3059) (Enterococcus sp.): >128 µg/mL
- MIC Enterococcus faecalis (GC 4552) (Enterococcus sp.): >128 µg/mL
- MIC Enterococcus faecalis (GC 4553) (Enterococcus sp.): >128 µg/mL
- MIC Enterococcus faecalis (GC 4554) (Enterococcus sp.): >128 µg/mL
- MIC Enterococcus faecalis (GC 6189) (Enterococcus sp.): >128 µg/mL
- MIC Enterococcus faecium (GC 2243) (Enterococcus sp.): >128 µg/mL
- MIC Enterococcus faecium (GC 4556) (Enterococcus sp.): >128 µg/mL
- MIC Enterococcus faecium (GC 4557) (Enterococcus sp.): >128 µg/mL
- MIC Enterococcus faecalis (ATCC 29212) (Enterococcus sp.; inoculum 5×10^5 CFU/mL, strain ATCC 29212): >128 µg/mL
- MIC Enterococcus faecalis (GC 2242) (Enterococcus sp.; inoculum 5×10^5 CFU/mL, strain GC 2242): >128 µg/mL
- MIC Enterococcus faecium (GC 2243) (Enterococcus sp.; inoculum 5×10^5 CFU/mL, strain GC 2243): >128 µg/mL
- MIC Enterococcus faecalis (GC 2691) (Enterococcus sp.; inoculum 5×10^5 CFU/mL, strain GC 2691): >128 µg/mL
- MIC Enterococcus faecalis (GC 3059) (Enterococcus sp.; inoculum 5×10^5 CFU/mL, strain GC 3059): >128 µg/mL
- MIC Enterococcus faecalis (GC 4552) (Enterococcus sp.; inoculum 5×10^5 CFU/mL, strain GC 4552): >128 µg/mL
- MIC Enterococcus faecalis (GC 4553) (Enterococcus sp.; inoculum 5×10^5 CFU/mL, strain GC 4553): >128 µg/mL
- MIC Enterococcus faecalis (GC 4554) (Enterococcus sp.; inoculum 5×10^5 CFU/mL, strain GC 4554): >128 µg/mL
- MIC Enterococcus faecium (GC 4556) (Enterococcus sp.; inoculum 5×10^5 CFU/mL, strain GC 4556): >128 µg/mL
- MIC Enterococcus faecium (GC 4557) (Enterococcus sp.; inoculum 5×10^5 CFU/mL, strain GC 4557): >128 µg/mL
- MIC Enterococcus avium (GC 4558) (Enterococcus sp.; inoculum 5×10^5 CFU/mL, strain GC 4558): 128 µg/mL (≈ 93.1 µM)
- MIC Enterococcus faecalis (GC 6189) (Enterococcus sp.; inoculum 5×10^5 CFU/mL, strain GC 6189): >128 µg/mL
Compound: CC(c1ccccc1)C1NC(=O)CNC(=O)C(CO)NC(=O)C(C(O)C2CNC(=N)N2C2OC(CO)C(O)C3OC(C)(C)OC32)NC(=O)C(C(O)C2CNC(=N)N2)NC(=O)C(Cc2ccc(OC3OC(CO)C(OC4OC(CO)C(O)C(O)C4O)C4OC(C)(C)OC34)cc2)NC1=O (stereo not shown) [Example 229]
- MIC Staphylococcus haemolyticus (GC 4546) (Staphylococcus sp.; [1]): >128 µg/mL
- MIC Staphylococcus haemolyticus (GC 4546) (Staphylococcus sp.; broth dilution, 18 hours at 35° C.; strain GC 4546): >128 µg/mL

- MIC Escherichia coli (ATCC 25922) (Escherichia coli; strain ATCC 25922, broth dilution): 32 µg/mL (≈ 27.8 µM)
- MIC Escherichia coli (GC 4559) (Escherichia coli; strain GC 4559, broth dilution): 32 µg/mL (≈ 27.8 µM)
- MIC Escherichia coli (GC 4560) (Escherichia coli; strain GC 4560, broth dilution): 8 µg/mL (≈ 6.95 µM)
- MIC Streptococcus pneumoniae (ATCC 6301) (Streptococcus sp.; strain ATCC 6301): 16 µg/mL (≈ 13.9 µM)
- MIC Streptococcus pneumoniae (GC 1894) (Streptococcus sp.; strain GC 1894): 32 µg/mL (≈ 27.8 µM)
- MIC Streptococcus pyogenes (GC 4563) (Streptococcus sp.; strain GC 4563): 8 µg/mL (≈ 6.95 µM)
- MIC Streptococcus agalactiae (GC 4564) (Streptococcus sp.; strain GC 4564): 32 µg/mL (≈ 27.8 µM)
- MIC Streptococcus pneumoniae (GC 4565) (Streptococcus sp.; strain GC 4565): 16 µg/mL (≈ 13.9 µM)
- MIC Staphylococcus aureus (ATCC 29213) (Staphylococcus sp.; [2]): 8 µg/mL (≈ 6.95 µM)
- MIC Staphylococcus aureus (GC 1131) (Staphylococcus sp.; [3]): 16 µg/mL (≈ 13.9 µM)
- MIC Staphylococcus aureus (GC 3051) (Staphylococcus sp.; [4]): 16 µg/mL (≈ 13.9 µM)
- MIC Staphylococcus aureus (GC 3053) (Staphylococcus sp.; [5]): 8 µg/mL (≈ 6.95 µM)
- MIC Staphylococcus aureus (GC 4541) (Staphylococcus sp.; [6]): 16 µg/mL (≈ 13.9 µM)
- MIC Staphylococcus aureus (GC 4542) (Staphylococcus sp.; [7]): 8 µg/mL (≈ 6.95 µM)
- MIC Staphylococcus aureus-SMITH (GC 4543) (Staphylococcus sp.; strain GC 4543; broth dilution, 18 hours at 35° C.): 8 µg/mL (≈ 6.95 µM)
- MIC Staphylococcus aureus (GC 4544) (Staphylococcus sp.; [8]): 8 µg/mL (≈ 6.95 µM)
- MIC Staphylococcus aureus (GC 4545) (Staphylococcus sp.; [9]): 8 µg/mL (≈ 6.95 µM)
- MIC Coagulase Negative Staphylococcus (GC 4547) (Staphylococcus sp.; strain GC 4547; broth dilution, 18 hours at 35° C.): 8 µg/mL (≈ 6.95 µM)
- MIC Coagulase Negative Staphylococcus (GC 4548) (Staphylococcus sp.; strain GC 4548; broth dilution, 18 hours at 35° C.): 8 µg/mL (≈ 6.95 µM)
- MIC Coagulase Negative Staphylococcus (GC 4549) (Staphylococcus sp.; strain GC 4549; broth dilution, 18 hours at 35° C.): 8 µg/mL (≈ 6.95 µM)
- MIC Coagulase Negative Staphylococcus (GC 4551) (Staphylococcus sp.; strain GC 4551; broth dilution, 18 hours at 35° C.): 8 µg/mL (≈ 6.95 µM)
- MIC Coagulase Negative Staphylococcus (GC 6257) (Staphylococcus sp.; strain GC 6257; broth dilution, 18 hours at 35° C.): 4 µg/mL (≈ 3.48 µM)
- MIC Enterococcus faecalis (ATCC 29212) (Enterococcus sp.; strain ATCC 29212): 32 µg/mL (≈ 27.8 µM)
- MIC Enterococcus faecalis (GC 2242) (Enterococcus sp.; strain GC 2242): 32 µg/mL (≈ 27.8 µM)
- MIC Enterococcus faecium (GC 2243) (Enterococcus sp.; strain GC 2243): 32 µg/mL (≈ 27.8 µM)
- MIC Enterococcus faecalis (GC 2691) (Enterococcus sp.; strain GC 2691): 32 µg/mL (≈ 27.8 µM)
- MIC Enterococcus faecalis (GC 3059) (Enterococcus sp.; strain GC 3059): 32 µg/mL (≈ 27.8 µM)
- MIC Enterococcus faecalis (GC 4552) (Enterococcus sp.; strain GC 4552): 64 µg/mL (≈ 55.6 µM)
- MIC Enterococcus faecalis (GC 4553) (Enterococcus sp.; strain GC 4553): 16 µg/mL (≈ 13.9 µM)
- MIC Enterococcus faecalis (GC 4554) (Enterococcus sp.; strain GC 4554): 32 µg/mL (≈ 27.8 µM)
- MIC Enterococcus faecium (GC 4556) (Enterococcus sp.; strain GC 4556): 64 µg/mL (≈ 55.6 µM)
- MIC Enterococcus faecium (GC 4557) (Enterococcus sp.; strain GC 4557): 8 µg/mL (≈ 6.95 µM)
- MIC Enterococcus avium (GC 4558) (Enterococcus sp.; strain GC 4558): 16 µg/mL (≈ 13.9 µM)
- MIC Enterococcus faecalis (GC 6189) (Enterococcus sp.; strain GC 6189): 32 µg/mL (≈ 27.8 µM)
Compound: CC(c1ccccc1)C1NC(=O)CNC(=O)C(CO)NC(=O)C(C(O)C2CNC(=N)N2C2OC(CO)C(O)C(O)C2O)NC(=O)C(C(O)C2CNC(=N)N2)NC(=O)C(Cc2ccc3oc(-c4ccc(Br)cc4)nc3c2)NC1=O (stereo not drawn) [Example 27, Cyclo[3-[2-(4-bromophenyl)-1,3-benzoxazol-5-yl]alanyl-3-(2-iminoimidazolidin-4-yl)seryl-3-(3-hexopyranosyl-2-iminoimidazolidin-4-yl)serylserylglycyl-β-methylphenylalanyl]]
- MIC Staphylococcus haemolyticus (GC 4546) (Staphylococcus sp.; strain GC 4546; broth dilution, 18 hours at 35° C.): 4 µg/mL (≈ 3.48 µM)
